Measurements from US20240226107A1, “UBIQUITIN-SPECIFIC PROTEASE 1 (USP1) INHIBITOR” (SIMCERE ZAIMING PHARMACEUTICAL CO., LTD., priority 2021, published 2024).

What was measured:
CYP2C19 = CYP2C19 (Homo sapiens (Human), UniProt P33261); assay: CYP enzyme inhibition in pooled human liver microsomes (S-mephenytoin); type: in vitro ADME
Description: (§1) Typical substrate metabolic responses of five major human CYP subtypes (CYP1A2, CYP2C9, CYP2C19, CYP2D6, CYP3A4) were evaluated using 150-donor pooled human liver microsomes (purchased from Corning, Cat. No.: 452117). The influence of different concentrations of each compound to be tested on metabolic responses of phenacetin (CYP1A2), diclofenac sodium (CYP2C9), S-mephenytoin (CYP2C19), bufuralol hydrochloride (CYP2D6), and midazolam (CYP3A4) was determined by liquid chromatography-mass spectrometry (LC/MS/MS). […] Then 200 μL of acetonitrile solution containing 3% formic acid and 40 nM internal standard verapamil was added and centrifuged at 4000 rpm for 50 min. The mixture was cooled on ice for 20 min and centrifuged at 4000 rpm for 20 min to precipitate the protein. Then 200 μL of supernatant was analyzed by LC-MS/MS. The peak area was calculated from the chromatogram. The residual activity ratio (%) was calculated according to the following equation: Peak area ratio=metabolite peak area/internal standard peak area Residual activity ratio (%)=peak area ratio of compounds-to-be-tested group/peak area ratio of blank group The half inhibitory concentration (IC50) for CYP was calculated by Excel XLfit 5.3.1.3.

CYP1A2 = CYP1A2 (Homo sapiens (Human), UniProt P05177); assay: CYP enzyme inhibition in pooled human liver microsomes (phenacetin); type: in vitro ADME
Sequence of CYP1A2 (P05177 whole entry): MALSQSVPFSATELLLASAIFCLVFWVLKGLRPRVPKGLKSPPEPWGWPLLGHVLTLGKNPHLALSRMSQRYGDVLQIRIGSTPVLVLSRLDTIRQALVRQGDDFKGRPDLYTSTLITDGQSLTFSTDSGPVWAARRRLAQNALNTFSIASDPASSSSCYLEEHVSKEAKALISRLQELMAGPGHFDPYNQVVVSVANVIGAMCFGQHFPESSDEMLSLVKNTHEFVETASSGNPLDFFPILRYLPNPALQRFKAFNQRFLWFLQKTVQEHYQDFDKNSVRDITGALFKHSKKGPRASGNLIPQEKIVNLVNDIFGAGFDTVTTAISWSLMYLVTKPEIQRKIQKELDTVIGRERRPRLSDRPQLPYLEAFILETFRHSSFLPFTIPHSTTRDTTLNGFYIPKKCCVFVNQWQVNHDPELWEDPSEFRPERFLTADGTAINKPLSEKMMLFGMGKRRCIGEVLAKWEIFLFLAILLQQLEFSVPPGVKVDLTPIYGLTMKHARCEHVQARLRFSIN
Description: as §1

[1] = molecular target: USP1 (Recombinant Human His6-USP1/His6-UAF1 Complex Protein) (Homo sapiens (Human), UniProt O94782); assay: In vitro activity assay for USP1 (Ub-CHOP2-Reporter deubiquitination assay); type: biochemical; settings: 0.5 h incubation at room temperature, read-out: In vitro inhibitory activity of USP1 IC50
Sequence of USP1 (Recombinant Human His6-USP1/His6-UAF1 Complex Protein) (O94782 whole entry): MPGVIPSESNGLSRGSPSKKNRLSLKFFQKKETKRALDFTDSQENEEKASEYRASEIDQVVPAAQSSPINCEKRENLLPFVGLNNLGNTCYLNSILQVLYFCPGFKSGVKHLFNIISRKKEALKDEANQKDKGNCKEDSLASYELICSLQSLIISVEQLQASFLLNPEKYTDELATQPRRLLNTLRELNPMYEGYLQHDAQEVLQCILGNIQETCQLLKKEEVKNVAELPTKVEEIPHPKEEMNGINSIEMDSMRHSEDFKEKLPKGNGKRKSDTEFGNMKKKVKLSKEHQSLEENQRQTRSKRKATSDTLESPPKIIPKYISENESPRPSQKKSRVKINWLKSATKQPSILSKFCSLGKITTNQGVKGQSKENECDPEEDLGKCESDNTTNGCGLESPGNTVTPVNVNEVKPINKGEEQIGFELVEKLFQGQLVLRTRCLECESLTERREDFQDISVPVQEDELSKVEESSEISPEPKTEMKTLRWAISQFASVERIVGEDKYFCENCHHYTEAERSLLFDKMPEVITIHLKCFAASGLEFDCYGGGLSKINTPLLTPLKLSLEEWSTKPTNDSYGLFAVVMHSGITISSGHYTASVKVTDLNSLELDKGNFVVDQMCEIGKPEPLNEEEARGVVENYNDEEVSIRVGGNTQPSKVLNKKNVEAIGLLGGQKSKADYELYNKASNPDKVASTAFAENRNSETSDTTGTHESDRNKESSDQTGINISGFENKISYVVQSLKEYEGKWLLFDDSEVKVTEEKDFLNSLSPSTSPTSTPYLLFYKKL
Sequence of USP1 (Recombinant Human His6-USP1/His6-UAF1 Complex Protein) (Q8TAF3 whole entry partner): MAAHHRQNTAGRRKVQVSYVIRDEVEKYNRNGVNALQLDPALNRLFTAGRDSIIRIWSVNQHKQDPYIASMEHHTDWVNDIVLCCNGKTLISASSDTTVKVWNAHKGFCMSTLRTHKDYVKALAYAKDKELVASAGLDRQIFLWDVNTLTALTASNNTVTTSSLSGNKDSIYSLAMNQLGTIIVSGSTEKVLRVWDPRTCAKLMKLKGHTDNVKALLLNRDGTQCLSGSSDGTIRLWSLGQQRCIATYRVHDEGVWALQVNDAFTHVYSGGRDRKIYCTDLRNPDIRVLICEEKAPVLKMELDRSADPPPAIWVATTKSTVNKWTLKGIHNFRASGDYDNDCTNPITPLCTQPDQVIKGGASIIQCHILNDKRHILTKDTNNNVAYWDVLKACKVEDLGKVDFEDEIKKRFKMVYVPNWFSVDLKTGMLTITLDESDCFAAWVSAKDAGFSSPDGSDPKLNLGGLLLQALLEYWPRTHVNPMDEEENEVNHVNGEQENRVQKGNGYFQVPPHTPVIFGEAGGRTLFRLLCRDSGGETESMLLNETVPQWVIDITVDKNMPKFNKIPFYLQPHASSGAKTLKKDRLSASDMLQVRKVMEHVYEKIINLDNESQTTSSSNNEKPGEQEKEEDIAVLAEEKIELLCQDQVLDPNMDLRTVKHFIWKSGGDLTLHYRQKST
Method in brief: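 His6-USP1/His6-UAF1 complex was mixed with compound in 20 mM Tris-HCl pH 8.0, 2 mM CaCl2, 2 mM β-mercaptoethanol and 0.05% CHAPS. Ub-CHOP2 reporter system plus substrate was added, then incubated 0.5 h at room temperature. IC50 came from a four-parameter logistic fit.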

CYP2D6 = CYP2D6 (Homo sapiens (Human), UniProt P10635); assay: CYP enzyme inhibition in pooled human liver microsomes (bufuralol hydrochloride); type: in vitro ADME
Sequence of CYP2D6 (P10635 whole entry): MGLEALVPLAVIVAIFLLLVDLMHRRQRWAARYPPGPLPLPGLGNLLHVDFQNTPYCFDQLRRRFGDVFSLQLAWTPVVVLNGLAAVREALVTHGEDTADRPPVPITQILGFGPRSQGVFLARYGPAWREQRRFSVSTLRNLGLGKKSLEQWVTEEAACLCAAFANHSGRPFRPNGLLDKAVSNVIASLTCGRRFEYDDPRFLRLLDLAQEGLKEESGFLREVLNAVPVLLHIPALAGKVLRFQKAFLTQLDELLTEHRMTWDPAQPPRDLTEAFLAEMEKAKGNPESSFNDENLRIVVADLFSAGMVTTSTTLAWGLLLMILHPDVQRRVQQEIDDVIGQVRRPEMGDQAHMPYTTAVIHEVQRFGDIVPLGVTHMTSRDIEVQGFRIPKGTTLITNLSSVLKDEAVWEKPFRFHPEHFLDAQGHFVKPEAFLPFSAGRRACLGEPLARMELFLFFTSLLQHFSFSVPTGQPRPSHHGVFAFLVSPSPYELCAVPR
Description: as §1

CYP3A4 = CYP3A4 (Homo sapiens (Human), UniProt P08684); assay: CYP enzyme inhibition in pooled human liver microsomes (midazolam); type: in vitro ADME
Sequence of CYP3A4 (P08684 whole entry): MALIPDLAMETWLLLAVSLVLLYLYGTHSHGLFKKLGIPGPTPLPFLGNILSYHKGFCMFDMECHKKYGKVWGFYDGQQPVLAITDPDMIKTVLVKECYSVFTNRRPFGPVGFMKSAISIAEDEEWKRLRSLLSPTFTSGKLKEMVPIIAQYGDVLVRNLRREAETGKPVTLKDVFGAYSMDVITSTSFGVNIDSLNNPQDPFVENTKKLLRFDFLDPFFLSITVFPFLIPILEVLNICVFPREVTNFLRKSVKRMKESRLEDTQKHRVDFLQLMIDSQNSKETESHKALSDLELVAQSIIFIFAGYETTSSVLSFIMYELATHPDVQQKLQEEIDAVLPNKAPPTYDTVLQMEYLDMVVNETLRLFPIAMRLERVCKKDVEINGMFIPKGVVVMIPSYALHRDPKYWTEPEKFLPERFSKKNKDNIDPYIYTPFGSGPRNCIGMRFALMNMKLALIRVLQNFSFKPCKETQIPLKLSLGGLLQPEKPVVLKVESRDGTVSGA
Description: as §1

CYP2C9 = CYP2C9 (Homo sapiens (Human), UniProt P11712); assay: CYP enzyme inhibition in pooled human liver microsomes (diclofenac sodium); type: in vitro ADME
Sequence of CYP2C9 (P11712 whole entry): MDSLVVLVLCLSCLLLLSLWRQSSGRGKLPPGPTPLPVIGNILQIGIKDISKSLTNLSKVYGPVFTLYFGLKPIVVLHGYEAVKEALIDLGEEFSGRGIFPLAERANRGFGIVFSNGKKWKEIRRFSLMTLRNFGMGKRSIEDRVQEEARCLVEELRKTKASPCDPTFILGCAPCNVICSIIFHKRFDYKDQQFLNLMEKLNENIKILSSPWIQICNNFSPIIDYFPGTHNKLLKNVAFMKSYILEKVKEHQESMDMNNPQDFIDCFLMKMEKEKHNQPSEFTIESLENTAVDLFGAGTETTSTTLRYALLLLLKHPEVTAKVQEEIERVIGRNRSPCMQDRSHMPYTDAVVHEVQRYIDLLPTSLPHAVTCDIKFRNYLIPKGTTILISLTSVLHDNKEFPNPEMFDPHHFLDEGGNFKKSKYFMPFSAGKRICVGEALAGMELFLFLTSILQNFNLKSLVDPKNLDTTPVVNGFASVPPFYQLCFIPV
Description: as §1

PXR = PXR (Homo sapiens (Human), UniProt O75469); assay: Potential for PXR activation in DPX2 cells; type: cell-based; settings: 10 μM, versus 20 μM rifampicin
Sequence of PXR (O75469 whole entry): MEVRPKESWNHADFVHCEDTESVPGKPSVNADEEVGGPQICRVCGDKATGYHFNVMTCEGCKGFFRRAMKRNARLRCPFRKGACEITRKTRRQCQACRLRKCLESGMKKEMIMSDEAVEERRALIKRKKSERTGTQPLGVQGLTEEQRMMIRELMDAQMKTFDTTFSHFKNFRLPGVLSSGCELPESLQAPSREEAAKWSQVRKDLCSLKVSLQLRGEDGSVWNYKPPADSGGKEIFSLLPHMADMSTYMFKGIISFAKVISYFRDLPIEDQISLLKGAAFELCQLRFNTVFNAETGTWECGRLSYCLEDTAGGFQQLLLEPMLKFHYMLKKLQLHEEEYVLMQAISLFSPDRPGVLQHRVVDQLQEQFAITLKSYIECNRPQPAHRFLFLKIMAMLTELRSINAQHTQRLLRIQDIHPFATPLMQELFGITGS
Description: DMSO solutions of the compounds to be tested and the control compound rifampicin solution were prepared, and diluted with Puracyp dosing medium (Puracyp, Cat. No: D-500-100) at 37° C. to respective test concentrations. The final concentrations of the compounds to be tested were 30 μM, 10 μM, and 1 μM, respectively, and the final concentration of rifampicin was 20 μM. The final concentration of DMSO in the test solution was 0.1%. In addition, 0.1% DMSO solution prepared with Puracyp dosing medium was used as a control.
DPX2 cells were suspended in Puracyp Culture medium (Puracyp, Cat No.: C-500-100) at a cell density of 4.5×10^5 cell/mL. Then, the suspension was placed on a 96-well culture plate at 100 μL/well for incubation at 37° C. for 24 h. The medium in appropriate wells of the 96-well culture plate was replaced (three times per well) by 100 μL of solution of the compounds to be tested and a control compound solution. After replacement, the plate was incubated at 37° C. for 24 h. The medium was then replaced (three times per well) by a newly prepared test solution of the compounds to be tested and a rifampicin test solution, and the plate was incubated at 37° C. for 24 h.
The medium in the 96-well culture plate was pipetted and washed twice with PBS. To each well, 50 μL of reagent diluted as required by CellTiter-Fluor™ Cell Viability Assay Kit (Promega, Cat. No.: G6082) was added, and incubated at 37° C. for 0.5 h. The 96-well plate was cooled to room temperature, and the fluorescence value of each well at 505 nm was measured in a fluorescence mode with a microplate reader at an excitation wavelength of 400 nm. Then, 50 μL of reagent prepared as required by One-Glo Luciferase Assay System (Promega, Cat. No.: E6120) was added to each well, and the mixture was incubated at room temperature for 5 min. The luminescence value of each well was read by using a lumen meter.
Normalized luciferase activity was determined by RLU/RFU, and the RLU and RFU of the samples were mean values of duplicate wells, respectively.
[formula] • Fold of activation: fold of activation of normalized luciferase; • RLUtest: measured luminescence value of test wells at each test dose of test compounds; • RLUvehicle: measured luminescence value of test wells when tested with the control DMSO solution; • RFUtest: measured fluorescence value of test wells at each test dose of test compounds; • RFUvehicle: measured fluorescence value of test wells when tested with the control DMSO solution.
The percentage of positive control was calculated as follows:
% Positive control=(fold activationtest compound−1)/(fold activationpositive control compound−1)×100% • % Positive control: percentage of PXR activation compared with 20 μM rifampicin activation at each test dose of test compounds; • Fold activationtest compound: fold of activation of normalized luciferase at each test dose of test compounds; • Fold activationpositive control compound: fold of activation of normalized luciferase of test compounds under 20 μM rifampicin.
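Wherever GI50 is given: MDA-MB-436 proliferation over 7 days with compound, viability read as ATP luminescence (CellTiter-Glo), inhibition relative to DMSO-only wells, day 0 signal as background, GI50 from four-parameter fit.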

Sequence of CYP2C19 (P33261 whole entry): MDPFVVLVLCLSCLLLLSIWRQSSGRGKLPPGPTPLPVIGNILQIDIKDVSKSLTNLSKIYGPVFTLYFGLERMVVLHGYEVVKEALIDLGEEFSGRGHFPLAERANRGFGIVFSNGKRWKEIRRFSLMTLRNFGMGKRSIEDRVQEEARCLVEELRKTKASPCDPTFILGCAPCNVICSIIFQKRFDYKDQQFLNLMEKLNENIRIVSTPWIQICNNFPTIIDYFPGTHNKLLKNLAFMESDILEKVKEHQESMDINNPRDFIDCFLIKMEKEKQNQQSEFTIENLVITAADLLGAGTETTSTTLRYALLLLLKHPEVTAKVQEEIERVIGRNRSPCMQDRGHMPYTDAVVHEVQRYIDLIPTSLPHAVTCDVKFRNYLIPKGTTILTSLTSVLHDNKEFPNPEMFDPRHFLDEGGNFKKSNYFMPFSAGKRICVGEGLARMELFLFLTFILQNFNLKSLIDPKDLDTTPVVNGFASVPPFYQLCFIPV
Description for MDA-MB-436 cells: Assay based on CellTiter-Glo luminescent cell viability assay system.
The assay kit (CellTiter-Glo® Luminescent Cell Viability Assay) was purchased from Promega, with Cat. No. of G7573, and was stored at −30° C. after subpackage. The kit is a homogeneous assay method for assaying the number of viable cells in a culture based on quantitative determination of ATP. The kit produces a luminescence signal proportional to the amount of ATP present, and the amount of ATP is directly proportional to the number of cells in the culture.
The cultured cells were trypsinized, collected and centrifuged, then resuspended at an adjusted concentration in a culture solution (DMEM+10% FBS), and cultured overnight on a 384-well plate (400 cells/20 μl/well) in a cell incubator with 5% CO2 at 37° C. An ECHO instrument was used to added the compound and pure DMSO onto each well of the 384-well plate. The total volume of the compound and DMSO is 100 nL, and the instrument obtains gradient diluted sample concentrations through different ratios. To each well, 30 μL of culture solution was added, and after mixing by centrifugal oscillation and re-centrifugation, the cells were cultured in a cell incubator for 7 days (one column of cells was subjected to CTG assay on the day of dosing). After day 7, 25 μL of CTG assay solution was added to each well, and after mixing by centrifugal oscillation and re-centrifugation, the cells were placed at room temperature away from light for 10 min. In terms of chemiluminescence signals, an Envision plate reader (PerkinElmer, emission wavelength: 400-700 nm) was used to measure a signal in each well. The chemiluminescence value [RLU]cpd on day 7 was obtained for the treatment group, the chemiluminescence value [RLU]cell on day 7 was obtained for the non-treatment group (given DMSO only), and the chemiluminescence value [RLU]background on day 0 was obtained for the parallel non-treatment group (given DMSO only) by CTG assay on day 0. […] In the following equation, x represents the concentration of the compound in a logarithmic form; and F(x) represents an effect value (inhibition rate of proliferation at the concentration): F(x)=(A+((B−A)/(1+((C/x)^D)))). A, B, C, and D are four parameters.

IC50 (CYP2C19): 10.2 µM | GI50 (MDA-MB-436 cells): 0.0307 µM | IC50 (CYP1A2): > 30 µM | IC50 [1]: 0.0173 µM | IC50 (CYP2D6): > 30 µM | IC50 (CYP3A4): > 30 µM | IC50 (CYP2C9): 4.5 µM | PXR activation (% Positive control) (PXR): 13.2 % Positive control
SMILES: COc1ncnc(C2CC2)c1-c1ncc2c(n1)N(Cc1ccc(-n3nc(C(F)(F)F)cc3C)cc1)C(=O)OC2(C)C [Compound 74, 7-(4-cyclopropyl-6-methoxypyrimidin-5-yl)-4,4-dimethyl-1-(4-(5-methyl-3-(trifluoromethyl)-1H-pyrazol-1-yl)benzyl)-1,4-dihydro-2H-pyrimido[4,5-d][1,3]oxazin-2-one]
